Results published in the supplement of paper PMC11451515.

Tested on: SEM cells
Assay: cell viability relative to DMSO control; higher = less cytotoxic
Settings: 48 h
Outline: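 Viability values are per-plate percentages of DMSO wells, with background from cell-free wells. Library compounds in DMSO were pin-dosed, in an 11-point threefold series from 47 μM to 0.79 nM, onto NOMO1 or SEM (500 cells/well) or P12-Ichikawa (1000 cells/well) leukemia cells in 1536-well plates (5 μl). Those cells had been adapted for at least four passages in each medium, and CellTiter-Glo One luminescence was read after 48 h at 37°C.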

[1] = HPLM + 10% dialyzed FBS, 0.000781 µM
[2] = HPLM + 10% dialyzed FBS, 0.00234 µM
[3] = HPLM + 10% dialyzed FBS, 0.00702 µM
[4] = HPLM + 10% dialyzed FBS, 0.0211 µM
[5] = HPLM + 10% dialyzed FBS, 0.0632 µM
[6] = HPLM + 10% dialyzed FBS, 0.19 µM
[7] = HPLM + 10% dialyzed FBS, 0.569 µM
[8] = HPLM + 10% dialyzed FBS, 1.71 µM
[9] = HPLM + 10% dialyzed FBS, 5.12 µM
[10] = HPLM + 10% dialyzed FBS, 15.4 µM
[11] = HPLM + 10% dialyzed FBS, 46.1 µM
[12] = RPMI 5 mM glucose + 10% FBS, 0.000781 µM
[13] = RPMI 5 mM glucose + 10% FBS, 0.00234 µM
[14] = RPMI 5 mM glucose + 10% FBS, 0.00702 µM
[15] = RPMI 5 mM glucose + 10% FBS, 0.0211 µM
[16] = RPMI 5 mM glucose + 10% FBS, 0.0632 µM
[17] = RPMI 5 mM glucose + 10% FBS, 0.19 µM
[18] = RPMI 5 mM glucose + 10% FBS, 0.569 µM
[19] = RPMI 5 mM glucose + 10% FBS, 1.71 µM
[20] = RPMI 5 mM glucose + 10% FBS, 5.12 µM
[21] = RPMI 5 mM glucose + 10% FBS, 15.4 µM
[22] = RPMI 5 mM glucose + 10% FBS, 46.1 µM
[23] = RPMI 5 mM glucose + 10% dialyzed FBS, 0.000781 µM
[24] = RPMI 5 mM glucose + 10% dialyzed FBS, 0.00234 µM
[25] = RPMI 5 mM glucose + 10% dialyzed FBS, 0.00702 µM
[26] = RPMI 5 mM glucose + 10% dialyzed FBS, 0.0211 µM
[27] = RPMI 5 mM glucose + 10% dialyzed FBS, 0.0632 µM
[28] = RPMI 5 mM glucose + 10% dialyzed FBS, 0.19 µM
[29] = RPMI 5 mM glucose + 10% dialyzed FBS, 0.569 µM
[30] = RPMI 5 mM glucose + 10% dialyzed FBS, 1.71 µM
[31] = RPMI 5 mM glucose + 10% dialyzed FBS, 5.12 µM
[32] = RPMI 5 mM glucose + 10% dialyzed FBS, 15.4 µM
[33] = RPMI 5 mM glucose + 10% dialyzed FBS, 46.1 µM

Row | Structure (SMILES) | cell viability [1] [%] | cell viability [2] [%] | cell viability [3] [%] | cell viability [4] [%] | cell viability [5] [%] | cell viability [6] [%] | cell viability [7] [%] | cell viability [8] [%] | cell viability [9] [%] | cell viability [10] [%] | cell viability [11] [%] | cell viability [12] [%] | cell viability [13] [%] | cell viability [14] [%] | cell viability [15] [%] | cell viability [16] [%] | cell viability [17] [%] | cell viability [18] [%] | cell viability [19] [%] | cell viability [20] [%] | cell viability [21] [%] | cell viability [22] [%] | cell viability [23] [%] | cell viability [24] [%] | cell viability [25] [%] | cell viability [26] [%] | cell viability [27] [%] | cell viability [28] [%] | cell viability [29] [%] | cell viability [30] [%] | cell viability [31] [%] | cell viability [32] [%] | cell viability [33] [%]
1 | Cc1ccc([S+](=O)([O-])OCC(=O)Nc2ccc(C(=O)O)c(O)c2)cc1 | 101 | 97.1 | 127 | 118 | 125 | 106 | 125 | 132 | 136 | 137 | 80.5 | 107 | 109 | 124 | 122 | 138 | 130 | 150 | 142 | 153 | 81.9 | 11.9 | 99.7 | 103 | 134 | 131 | 123 | 140 | 125 | 147 | 144 | 109 | 43.7
2 | CC(C)(O)CC(=O)NCCn1ccc2ncnc(Nc3ccc(Oc4cccc(C(F)(F)F)c4)c(Cl)c3)c21 | 106 | 110 | 102 | 103 | 112 | 105 | 103 | 96.5 | 94.6 | 71.6 | 32.9 | – | – | – | – | – | – | – | – | – | – | – | 105 | 88 | 102 | 103 | 109 | 107 | 100 | 101 | 90.4 | 58.5 | 23.6
3 | NC(=O)c1ccc(N(C(N)=O)c2c(F)cccc2F)nc1-c1ccc(F)cc1F | 85.2 | 81.2 | 88.2 | 79.5 | 89.5 | 94 | 106 | 99.7 | 88.5 | 51.7 | 77.5 | 116 | 88.8 | 80.1 | 97.4 | 119 | 95 | 89 | 104 | 102 | 52.3 | 94.9 | 87.6 | 86.7 | 89.4 | 94.7 | 93.2 | 94.9 | 88.3 | 100 | 92.1 | 41.1 | 66.8
4 | O=C(O)c1cccnc1Nc1cccc(C(F)(F)F)c1 | 92.1 | 105 | 99.1 | 103 | 119 | 117 | 40.9 | 65.2 | 117 | 120 | 111 | 102 | 97.1 | 90.9 | 106 | 108 | 111 | 65.9 | 55.2 | 98.5 | 80.6 | 75.6 | 105 | 133 | 110 | 106 | 119 | 125 | 59.5 | 54.7 | 121 | 108 | 107
5 | COc1ccc2c(c1)CN(C)CC2c1ccc(Cl)c(Cl)c1 (stereo unspecified) | 78 | 104 | 121 | 102 | 122 | 109 | 133 | 117 | 126 | 117 | 58.7 | 95.5 | 112 | 140 | 108 | 136 | 136 | 131 | 123 | 128 | 125 | 74.5 | 89.2 | 109 | 133 | 104 | 138 | 168 | 157 | 150 | 143 | 141 | 109
6 | C[C@@H]1CCO[C@H]2CN\3/C=C(/C(=O)NCC4=C(F)C=C(F)C=C4)C(=O)\C(=C3C(=O)N12)O | 82.2 | 104 | 85 | 104 | 73.4 | 91.6 | 105 | 103 | 104 | 91.5 | 85.3 | 100 | 95.2 | 99.6 | 98.5 | 44.4 | 111 | 104 | 112 | 107 | 85.8 | 88.1 | 93.4 | 98.7 | 95.2 | 96.3 | 99.1 | 100 | 107 | 99.3 | 94.6 | 96.7 | 86.6
7 | COc1cc2c(cc1OC)CN(CCc1ccc(NC(=O)c3cc(OC)c(OC)cc3NC(=O)c3cnc4ccccc4c3)cc1)CC2 | 116 | 115 | 116 | 123 | 111 | 110 | 123 | 120 | 101 | 69 | 79.6 | – | – | – | – | – | – | – | – | – | – | – | 115 | 123 | 114 | 108 | 122 | 123 | 121 | 132 | 103 | 59.9 | 47.9
8 | CC[C@@H]([C@H](C)O)n1ncn(-c2ccc(N3CCN(c4ccc(OCC5CO[C@@](Cn6cncn6)(c6ccc(F)cc6F)C5)cc4)CC3)cc2)c1=O (stereo partly specified) | 92.3 | 110 | 107 | 107 | 114 | 100 | 107 | 100 | 102 | 59.1 | 82.7 | 96.7 | 101 | 109 | 105 | 105 | 115 | 93.8 | 103 | 86.9 | 87.7 | 78.2 | 112 | 111 | 108 | 124 | 106 | 105 | 106 | 115 | 102 | 90.7 | 81.8
9 | Cc1ccnc2c1NC(=O)c1cccnc1N2C1CC1 | 63.6 | 84.2 | 97.9 | 101 | 95.8 | 97.2 | 106 | 107 | 91.8 | 102 | 111 | 83.7 | 85.2 | 84.6 | 85.4 | 96.7 | 96.8 | 90.9 | 101 | 99.4 | 105 | 99.6 | 90.8 | 86.6 | 94.5 | 90.1 | 90.1 | 89.7 | 93 | 90.4 | 105 | 101 | 93.6
10 | CCc1ccc(/C=C2/SC(=S)NC2=O)cc1 | 65.6 | 63.5 | 87.9 | 76.4 | 66.2 | 64.8 | 77.2 | 64.8 | 80.9 | 27.6 | 34.5 | 78 | 89.9 | 94 | 106 | 97 | 77.9 | 80 | 87.2 | 74.6 | 40.1 | 45.4 | 79.3 | 62.7 | 74 | 74.2 | 69.9 | 61 | 66.4 | 57.3 | 58.6 | 20.5 | 27
11 | O=C(O)C(=O)c1cn(Cc2ccccc2)c2ccc(-c3ccc(OC(F)(F)F)cc3)cc12 | 102 | 126 | 116 | 117 | 107 | 108 | 109 | 110 | 122 | 46.2 | 97.5 | 119 | 106 | 104 | 103 | 98.7 | 102 | 95.2 | 108 | 97.3 | 45.1 | 88.1 | 110 | 94.6 | 102 | 99 | 98.6 | 84.2 | 116 | 89.1 | 101 | 30.4 | 84.2
12 | OCC(O)C(O)C(O)CO (stereo unspecified) | 85.4 | 83.7 | 98.2 | 101 | 103 | 102 | 73.8 | 94.7 | 91.6 | 37.5 | 88.9 | 89 | 91.1 | 92.2 | 95.9 | 109 | 102 | 80.2 | 103 | 97.8 | 29.8 | 86.4 | 103 | 105 | 102 | 101 | 88.6 | 89.1 | 64.6 | 91.5 | 109 | 30.3 | 93
13 | Cc1coc2c1C(=O)C(=O)c1c-2ccc2c1CCCC2(C)C | 112 | 98.6 | 104 | 102 | 96.8 | 97 | 97.1 | 102 | 99.6 | 85.2 | 87.4 | 112 | 108 | 107 | 109 | 101 | 99.6 | 104 | 95.8 | 97.1 | 79.9 | 80.7 | 96.7 | 99.7 | 102 | 97.4 | 90.3 | 88 | 82.6 | 76 | 75.1 | 78.4 | 84.3
14 | COc1c(C)c2c(c(O)c1C/C=C(\C)CCC(=O)O)C(=O)OC2 | 92.9 | 104 | 104 | 111 | 113 | 100 | 120 | 111 | 97 | 61.2 | 33.3 | 102 | 105 | 114 | 109 | 113 | 102 | 118 | 98.2 | 77 | 48.1 | 29.9 | 102 | 104 | 115 | 81.9 | 114 | 108 | 100 | 116 | 108 | 64.8 | 45.6
15 | COc1ccc2c(c1)[C@]13CCCCC1C(C2)N(C)CC3 (stereo partly specified) | 102 | 116 | 113 | 106 | 116 | 112 | 103 | 100 | 128 | 111 | 129 | 106 | 105 | 115 | 115 | 111 | 126 | 110 | 113 | 126 | 126 | 123 | 101 | 103 | 106 | 114 | 108 | 114 | 118 | 109 | 117 | 108 | 114
16 | O=C(O)c1cc(/N=N/c2ccc([S+](=O)([O-])Nc3ccccn3)cc2)ccc1O | 84.9 | 108 | 95.3 | 76.3 | 101 | 103 | 122 | 106 | 110 | 90.8 | 98.2 | 98.8 | 101 | 108 | 71.9 | 103 | 114 | 112 | 97.2 | 89.3 | 116 | 75.1 | 91.7 | 102 | 96.2 | 76.8 | 117 | 91.5 | 97.5 | 106 | 95.5 | 89.4 | 82.1
